Results on 2 compounds are retold here after patent publication US20180289764A1, “TRADITIONAL CHINESE MEDICINE COMPOSITION FOR TREATING PSORIASIS” (Guangdong Provincial Hospital of Chinese Medicine, priority 2015, published 2018).

Assay [1] concerns psoriasis. Conditions: systemic treatment of psoriasis, background table; cited from earlier work.
Assay [2] concerns mouse tail scaled epidermis. In words: Effects on the mouse tail scaled epidermis. It is filed as in vivo, KM mice. The source says:
60 KM mice weighing 18-25 g with half males and half females were selected in this study, the mice were qualified in an adaptive breeding observation. The mice were layered with Excel according to weights, 6 mice every layer, and the mice in each layer were randomly assigned to each group, 10 mice every group, and the mice were divided into 6 groups in total, that is normal control group, the group of the present invention, the group of patent 200910091066.5, the group of the patent of 201210183904.3, the group of methotrexate tablet and the group of yujin yinxie tablet. The mice in each group were given by intragastric administration at a volume of 20 mL·kg-1·d-1 in the morning, once every day for 14 days. The normal control group was given equal volume of pure water. The mice were sacrificed one hour after the last administration, and a long strip of the dorsal skin of the root of the mouse tail (about 1.0 cm×0.2 em) was took off and fixed with 10% formaldehyde solution, embedded in paraffin, and stained with HE. The tail scales of each mouse were observed under an optical microscope. Those where the granulosa layers arranged in rows are in the epidermis of scales between the two follicular orifice, are known as the scales with granulosa layer. […]

Assay [3] has as its system propranolol-induced guinea pig psoriasis model. Nature of the assay: Propranolol-induced guinea pig psoriasis model. It is filed as in vivo, Hartley guinea pigs. The protocol:
The preparation of 5% propranolol hydrochloride emulsion: 5 g propranolol hydrochloride was dissolved with 50% ethanol, 5 mL 1,2-propanediol was added as a composite accelerator, and 5 g PVPK30 was added as a film-forming material. 50% ethanol was added to 100 mL, and preparing into 5% propranolol hydrochloride emulsion until used
80 Hartley guinea pigs weighing 200-250 g with half males and half females were selected in this study, the Hartley guinea pigs were qualified in an adaptive breeding observation. 10 guinea pigs (half male and half female) were used as a normal control group based on a random allocation, and no drugs were administrated to them; the other 70 guinea pigs (half males and half females) were treated with 5% propranolol hydrochloride emulsion (about 200 μL) evenly in the skins behind both of ears, 2 times a day, continuing treating 4 weeks, for modeling. 4 weeks later, 10 guinea pigs were sacrificed to examine whether the model was successful (with the thickness of the ear skin as an index). The remaining 60 guinea pigs were then layered with Excel according to weights, 6 guinea pigs every layer, and the guinea pigs in each layer were randomly assigned to each group, 10 guinea pigs every group, and the guinea pigs were divided into 6 groups in total, that is the model control group, the group of the present invention, the group of patent 201210183904.3, the group of the patent of 200910091066.5, the group of methotrexate tablet and the group of yujin yinxie tablet. The guinea pigs in each group were given by intragastric administration at a volume of 20 mL·kg-1·d-1 in the morning, once every day for 10 days. The normal control group and the model control group were given equal volume of pure water. The guinea pigs were sacrificed one hour after the last administration, and the skin behind both of ears was took off and fixed with 10% formaldehyde solution, embedded in paraffin, and stained with HE, observed under an optical microscope. 10 high-power fields were counted, the thickness of the epidermis was measured with a micrometer, and averaged; the auricular pathology of guinea pigs was used to perform a histological examination, observe vasodilation situations, which were denoted as 0, 0.5, 1 and 2 points according to normal, light, medium and heavy degrees.

For the compound `CN(Cc1cnc2nc(N)nc(N)c2n1)c1ccc(C(=O)N[C@@H](CCC(=O)O)C(=O)O)cc1` [methotrexate tablet, methotrexate], in assay [1], the “Efficacy rate (the efficient)” value is 20-40%. For the same compound, the “Formation of the epidermis granulosa layer of the mouse tail scale compared with normal control group” value in assay [2] (intragastric 14 days, P<0.05 or P<0.01) is listed as “significantly promote the formation of the epidermis granulosa layer of the mouse tail scale”. Besides, the “The number of scales in the granulosa layer” value in assay [2] (per 100 scales, expressed as a percentage, intragastric once daily for 14 days, x ± s, n = 10) is on record as 43.65 ± 11.18. The compound also registered a Blood vessel dilatation in assay [3] (0, 0.5, 1, 2 points for normal, light, medium, heavy, intragastric 10 days, x ± s, n = 10) of 0.42 ± 0.12 score. Besides, the “Effect on epidermis thickness of guinea pig ears and hemangiectasis compared with model control” value in assay [3] (P<0.01) is “significantly reduce the thickness of the epidermis of guinea pig ears and reduce hemangiectasis”. Besides, the Histopathological examination result in assay [3] (guinea pig ear skin, HE stain) is “hyperkeratosis and parakeratosis was obviously alleviated”. Further, the Epidermal thickness in assay [3] (guinea pig ear skin, intragastric once daily for 10 days, x ± s, n = 10) is recorded as 96.61 ± 4.78 μm.

On to `CC1=C(/C=C/C(C)=C/C=C/C(C)=C/CO)C(C)(C)CCC1` [Vitamin A, vitamin A (retinol)], for which the “Efficacy rate (the efficient)” value in assay [1] is 25%.
